US10723702B2, “Photocrosslinking reagents and methods of use thereof” (Northwestern University, priority 2015, dated 2020)
“Also recorded” adds a separate entry of the source.

What was measured:
[1] = tested on: UbcH7 mutants with a single cysteine available; assay: Alkylation conversion of UbcH7 mono-cysteine mutants by crosslinker, estimated by LCMS; assay type: biochemical, human; settings: all mono-cysteine UbcH7 mutants; intact protein mass spectrometry
Protocol: Crosslinker in DMF (500 mM, 5 mM final concentration) was added to a UbcH7 cysteine mutant (100-200 μM in UbcH7 storage buffer; 1% DMF v/v final concentration). The resulting reaction mixture was mixed by pipetting, covered with aluminum foil, and rocked at room temperature (crosslinkers 1), or 4° C. (crosslinker 2 and 3) for 90 minutes. Immediately following, the solution was desalted/exchanged into PBS(B) with a Zeba Spin Desalting Column (7 kDa MWCO Pierce), frozen in N2(l), and stored at −80° C. The extent of alklylation was analyzed by LC-MS.
(§1) Alkylation of UbcH7 cysteine mutants occurred readily by incubating 50-300 μM UbcH7 with 5 mM crosslinker 1 at room temperature for 90 minutes before removing free crosslinker with a desalting column. […] The UbcH7 CΔS-1 mutants (10 μM) were then mixed with the E6AP catalytic HECT domain (10 μM) and irradiated at 365 nm for 10 minutes in a 96-well plate. The reaction mixtures were then resolved with reducing SDS-PAGE and analyzed with anti-UbcH7 western blot. Photocrosslinking of UbcH7 to E6AP depends on the presence of both UV irradiation and E6AP (FIG. 6).

E6AP HECT domain [2] = biological target: T1, E6AP HECT domain (Homo sapiens, UniProt Q05086); assay: Photocrosslinking of crosslinker-alkylated UbcH7 to E6AP HECT (365 nm, SDS-PAGE/western blot); assay type: biochemical; settings: crosslinker on UbcH7 CΔS E93C 10 μM, E6AP-HECT 10 μM, 365 nm 10 minutes
T1 construct: Underlined residues remain from the GST tag and are not part; GST (N, cleaved yes); made in house; host or cells: E. coli Rosetta (DE3) pLysS (E6AP HECT); E. coli BL21 (UbcH7)
T1 sequence (Q05086 with tags, fused parts or gaps): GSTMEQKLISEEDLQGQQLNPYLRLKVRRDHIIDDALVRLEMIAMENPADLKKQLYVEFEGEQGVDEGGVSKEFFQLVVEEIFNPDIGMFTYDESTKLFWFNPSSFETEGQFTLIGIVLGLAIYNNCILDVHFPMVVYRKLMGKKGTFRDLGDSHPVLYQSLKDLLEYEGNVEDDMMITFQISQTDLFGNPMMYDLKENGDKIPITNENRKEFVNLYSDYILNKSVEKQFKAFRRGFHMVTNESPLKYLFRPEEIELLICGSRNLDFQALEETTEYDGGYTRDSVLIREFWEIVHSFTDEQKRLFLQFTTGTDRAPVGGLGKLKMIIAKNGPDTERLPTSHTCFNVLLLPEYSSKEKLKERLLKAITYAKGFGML
Protocol: (§2) FIG. 4. […] UbcH7 CΔS E93C-2 or UbcH7 CΔS E93C-3 (10 μM final concentration) was incubated with E6AP-HECT (10 μM final concentration) in PBS(B) with 6 μM Tween-20 and 1 mM DTT. After keeping samples in the dark or irradiating at 365 nm for 10 minutes, they were quenched with 6× Laemmli buffer and β-mercaptoethanol (β-ME) and then boiled at 95° C. for 5 minutes. Covalently crosslinked protein complexes were resolved by SDS-PAGE and visualized by western blot and coomassie.
(§3) E6AP HECT was exchanged into crosslinker buffer with Zeba Spin Desalting Column and mixed (14 μM final concentration, 480 μg) with Tween-20 (6 μM), DTT (1 mM) in PBS(B) in a 1.5 mL tube. The reaction mixture was then taken to a darkened room where alkylated UbcH7 (14 μM, final concentration, 203 μg) was added (final volume of reaction mixture was 790 μL). The solution was mixed by pipetting and then transferred to four wells of a 96 well plate (Costar #3370). The plate was placed 3 cm below a UV lamp (UVP 3UV-38 3UV Lamp; 8 watt, 115V ˜60 Hz, 0.16 Amps) and irradiated at 365 nm for 10 minutes.
(§4) Following irradiation, the sample was mixed with Laemmli buffer and β-mercaptoethanol (230 mM final concentration) and boiled for five minutes. Crosslinking experiments in main text FIGS. 2, 3, and 4 were performed similarly with 20-50 μL total volume and with the indicated final concentrations of UbcH7 and E6AP.
as §1

E6AP HECT domain [3] = assay: as above; assay type: biochemical; settings: for Crosslinking of E6AP by UbcH7 CΔS F63A mutants or their Ub oxyesters bearing crosslinker: F63A negative control
Protocol: as §2, §3, §4, §1

[4] = Acid cleavage of crosslinker in photocrosslinked UbcH7-E6AP complex; assay type: physicochemical; settings: pH 1, 55° C.
Protocol: FIGS. 12A-E. Mass spectrometry protocol to identify crosslinker modifications on E6AP. A. The band corresponding to the crosslinked UbcH7-E6AP complex was excised and loaded to the denaturing electroelution device. After eluting complexes from the gels, photocrosslinked protein complexes were cleaved under acidic conditions, trypsinized, and then analyzed. B. Crosslinker 2 is cleavable at pH 1, 55° C. I. UbcH7-E6AP crosslink. II. E6AP-HECT. C. By conducting the acidic cleavage of photocrosslinked proteins in Tris-Glycine-SDS buffer, we avoided hydrolysis of the peptide backbone. I. UbcH7-E6AP crosslink. II. E6AP-HECT. III. UbcH7. D. MS^2 identification of E6AP Lys^847 modified by crosslinker 2. y-ions are highlighted. The full spectrum and b-ion identification can be found in Spectral Appendix I. E. Residue map of the E6AP C-terminus indicating sites of crosslinker modification by UbcH7 CΔS E93C-2/3 or UbcH7 CΔS E93C Ub-2/3.
Electroelution fractions in Tris-Glycine-SDS buffer were treated with 1 M aqueous HCl (protein sample/1 M HCl 4:1 v/v) to obtain pH 1 in a 1.5 microcentrifuge tube (one gel's worth of elution per tube). […]
To identify the photocrosslinked sites of E6AP, a mass spectrometry protocol was developed. […] Finally, protein was precipitated with acetone, digested with trypsin, and then analyzed the peptides with an Orbitrap Velos.

UbcH7 [5] = biological target: T2, UbcH7 (Homo sapiens, UniProt P68036, C137S/C17S/C86S/E93C); assay: UbcH7 C86S-Ub oxyester formation by crosslinker-alkylated UbcH7; assay type: biochemical; settings: crosslinker on UbcH7 CΔS E93C; Ube1, ubiquitin, ATP, 37° C., 15 hours
T2 construct: Underlined residues remain from the GST tag and are not part; GST (N, cleaved yes); made in house; host or cells: E. coli BL21 (UbcH7)
T2 sequence (P68036 with tags, fused parts or gaps C17S/C86S/E93C/C137S): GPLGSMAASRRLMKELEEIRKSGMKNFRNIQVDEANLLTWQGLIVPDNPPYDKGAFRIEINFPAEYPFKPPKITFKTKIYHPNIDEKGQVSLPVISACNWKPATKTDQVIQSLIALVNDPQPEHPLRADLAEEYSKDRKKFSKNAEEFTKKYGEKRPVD
Protocol: (§5) FIGS. 5A-C. Crosslinker-modified UbcH7 charged with ubiquitin. UbcH7 C86S-Ub oxyester interacts with E6AP to transfer ubiquitin. (A.) Each alkylated mutant is competent to form an UbcH7 C86S-Ub oxyester except when the catalytic cysteine C86 is alkylated with crosslinker (lane 9). UbcH7 mutants alkylated by crosslinker 1 at the indicated residue (5 μM) were incubated with Ube1 (200 nM), ubiquitin (10 μM) in the dark at 37° C. for 15 hours in 25 mM HEPES pH 7.5, 50 mM NaCl, 10 mM MgCl2, 1 mM DTT with or without ATP (185 μM). Reactions were quenched with 6× Laemmli buffer with β-ME and incubated at room temperature for 5 minutes without boiling. The “*” marks a faint GST impurity. […] (C.) UbcH7 CΔS-Ub oxyester alkylated with crosslinker transfers ubiquitin to E6AP HECT (compare to FIG. 2B where E6AP HECT is a single band). […] UbcH7-Ub oxyester (5 μM) was incubated with or without E6AP-HECT (5 μM) in PBS(B) for 20 hours at room temperature. Reactions were quenched with 6× Laemmli buffer with β-ME and incubated at room temperature for 5 minutes without boiling.

UbcH7 [6] = assay: as above; assay type: biochemical, human; settings: oxyester formation and ubiquitin transfer retained
Protocol: as §5

UbcH7/E6AP interaction = assay: Ubiquitin transfer from alkylated UbcH7 CΔS-Ub oxyester to E6AP HECT; assay type: biochemical; settings: UbcH7-Ub oxyester 5 μM, E6AP-HECT 5 μM, PBS(B), 20 hours, room temperature
Protocol: as §5

E6AP-HECT = biological target: T3, E6AP-HECT (Homo sapiens, UniProt Q05086); settings: read-out: Binding affinity Kd for E6AP-HECT; cited from earlier work
T3 sequence (Q05086 495-852 isoform Q05086-2 limits assumed): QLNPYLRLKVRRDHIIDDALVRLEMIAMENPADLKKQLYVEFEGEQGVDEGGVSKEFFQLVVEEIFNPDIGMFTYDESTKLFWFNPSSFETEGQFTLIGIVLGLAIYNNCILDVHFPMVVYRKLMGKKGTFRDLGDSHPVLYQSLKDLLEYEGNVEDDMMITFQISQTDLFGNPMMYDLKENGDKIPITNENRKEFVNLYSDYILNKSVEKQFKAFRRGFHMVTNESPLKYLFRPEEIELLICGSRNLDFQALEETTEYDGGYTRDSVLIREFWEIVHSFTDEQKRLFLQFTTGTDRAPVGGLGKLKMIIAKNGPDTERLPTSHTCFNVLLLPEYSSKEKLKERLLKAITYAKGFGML

| Molecule | Labeling (mono-alkylation) of UbcH7 cysteine mutants, in words [1] | Photocrosslinking efficiency (E6AP HECT domain [2]) | Crosslinking of E6AP by UbcH7 CΔS F63A mutants or their Ub oxyesters bearing crosslinker (E6AP HECT domain [3]) | Cleavage of crosslinker under acidic conditions [4] | Effect of crosslinker on efficiency of UbcH7-Ub oxyester formation (UbcH7 [5]) | Effect of mutagenesis and alkylation with crosslinker on E2 enzyme structure (UbcH7 [6]) | Crosslinking efficiency by crosslinker position on UbcH7 (E6AP HECT domain [3]; crosslinker placed at UbcH7 CΔS E93C or catalytic cysteine Cys86, 10 μM each, 365 nm 10 minutes) | Interference of crosslinker with UbcH7/E6AP interaction (ubiquitin transfer to E6AP HECT) (UbcH7/E6AP interaction) | Kd (E6AP-HECT) |
| --- | --- | --- | --- | --- | --- | --- | --- | --- | --- |
| CC1(CCOS(=O)(=O)NC(=O)CI)N=N1 [Crosslinker 2] | not as reactive with some of the mutants | equal photocrosslinking efficiency | did not crosslink E6AP | cleavable | does not affect the efficiency of UbcH7-Ub oxyester formation | did not compromise the E2 enzyme structure |  |  |  |
| CC1(CCNC(=O)CI)N=N1 [Crosslinker 1] | quantitatively labeled every UbcH7 cysteine mutant; also recorded: near quantitative mono-alkylation |  | did not crosslink E6AP |  |  | did not compromise the E2 enzyme structure | most efficient crosslinking | does not interfere with the UbcH7/E6AP interaction |  |
| [2H]C([2H])([2H])C1(C([2H])([2H])COS(=O)(=O)NC(=O)CI)N=N1 [Crosslinker 3] | not as reactive with some of the mutants | equal photocrosslinking efficiency |  |  |  | did not compromise the E2 enzyme structure |  |  |  |
| UbcH7: E2 enzyme upstream of E6AP (SEQ ID NO: 2) |  |  |  |  |  |  |  |  | 5 µM |
